Reference: PubChem BioAssay AID192 (DTP/NCI, 2004)
“And” between values parts separate entries of the source, which are not always exact repeats. Equal values may be shown once. Inconclusive results and toxic doses are left out.

Tested on: BDF1 mice, B16 melanoma ip, median survival T/C
Experiment: NCI In Vivo Anticancer Drug Screen. Data for tumor model B16 Melanoma (intraperitoneal) in B6D2F1 (BDF1) mice
Conditions: endpoint: median survival time, higher = longer survival
Procedure, shortened: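 Values are ratios of treated (T) to vehicle-control (C) measurements of survival or tumor size in tumor-bearing mice.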

[1] = dose: 25.0 mg/kg/injection, schedule: Q01DX009 (ip), vehicle: saline
[2] = dose: 50.0 mg/kg/injection, schedule: Q01DX009 (ip), vehicle: saline
[3] = dose: 100.0 mg/kg/injection, schedule: Q01DX009 (ip), vehicle: saline
[4] = dose: 200.0 mg/kg/injection, schedule: Q01DX009 (ip), vehicle: saline
[5] = dose: 12.5 mg/kg/injection, schedule: Q01DX009 (ip), vehicle: saline
[6] = dose: 100.0 mg/kg/injection, schedule: Q01DX009 (ip), vehicle: Klucel (hydroxypropylcellulose) (HPC)
[7] = dose: 200.0 mg/kg/injection, schedule: Q01DX009 (ip), vehicle: Klucel (hydroxypropylcellulose) (HPC)
[8] = dose: 400.0 mg/kg/injection, schedule: Q01DX009 (ip), vehicle: Klucel (hydroxypropylcellulose) (HPC)

O=C(OC1C(O)OC2COC(=O)c3cc(O)c(O)c(O)c3-c3c(cc(O)c(O)c3O)C(=O)OC2C1O)c1cc(O)c(O)c(O)c1 (configuration not stated)
T/C (dose: 3.75 mg/kg/injection, schedule: Q01DX009 (ip), vehicle: saline): 99 % of control
T/C (dose: 7.5 mg/kg/injection, schedule: Q01DX009 (ip), vehicle: saline): 112 % of control

O=C(O)c1cc(O)ccc1O
T/C [1]: 93 % of control
T/C [2]: 100 % of control
T/C [3]: 102 % of control
T/C [4]: 98 % of control

CCNCCNc1ccc(NCCNCC)c2c1C(=O)c1ccccc1C2=O
T/C (dose: 8.0 mg/kg/injection, schedule: Q01DX009 (ip), vehicle: acid diluted with saline): 157 % of control
T/C (dose: 16.0 mg/kg/injection, schedule: Q01DX009 (ip), vehicle: acid diluted with saline): 158 % of control

CCCCC1CCCCCCc2[nH]c(/C=C3\N=C(c4ccc[nH]4)C=C3OC)cc21 (configuration not stated)
T/C (dose: 62.0 micrograms/kg/injection, schedule: Q01DX009 (ip), vehicle: saline with Tween-80): 106 % of control
T/C (dose: 125.0 micrograms/kg/injection, schedule: Q01DX009 (ip), vehicle: saline with Tween-80): 96 % of control
T/C (dose: 250.0 micrograms/kg/injection, schedule: Q01DX009 (ip), vehicle: saline with Tween-80): 92 % of control
T/C (dose: 500.0 micrograms/kg/injection, schedule: Q01DX009 (ip), vehicle: saline with Tween-80): 103 % of control

COc1ccc(/C=C(\C)[N+](=O)[O-])cc1OC
T/C (dose: 12.5 mg/kg/injection, schedule: Q01DX009 (ip), vehicle: other): 88 % of control
T/C (dose: 25.0 mg/kg/injection, schedule: Q01DX009 (ip), vehicle: other): 93 % of control

Nc1nc(N)c2nc(CNc3ccc(C(=O)NC(CCC(=O)O)C(=O)O)cc3)cnc2n1 (configuration not stated)
T/C (dose: 0.03 mg/kg/injection, schedule: Q01DX009 (ip), vehicle: saline with Tween-80): 91 % of control
T/C (dose: 0.13 mg/kg/injection, schedule: Q01DX009 (ip), vehicle: saline with Tween-80): 102 % of control
T/C (dose: 0.25 mg/kg/injection, schedule: Q01DX009 (ip), vehicle: saline with Tween-80): 91 % of control and 95 % of control

COC(=O)c1ccc(C(=O)OC)cc1
T/C (dose: 0.05 mg/kg/injection, schedule: Q04DX003 (ip), vehicle: water): 103 % of control
T/C (dose: 0.1 mg/kg/injection, schedule: Q04DX003 (ip), vehicle: water): 96 % of control
T/C (dose: 0.2 mg/kg/injection, schedule: Q04DX003 (ip), vehicle: water): 106 % of control
T/C (dose: 0.4 mg/kg/injection, schedule: Q04DX003 (ip), vehicle: water): 113 % of control

N=c1ccn2c(n1)OC1C(O)C(CO)OC12 (configuration not stated)
T/C [5]: 98 % of control
T/C [1]: 96 % of control and 109 % of control
T/C [2]: 102 % of control and 108 % of control and 117 % of control
T/C (dose: 100.0 mg/kg/injection, schedule: Q01DX009 (ip), vehicle: saline sonified): 104 % of control
T/C [3]: 120 % of control and 105 % of control
T/C (dose: 200.0 mg/kg/injection, schedule: Q01DX009 (ip), vehicle: saline sonified): 104 % of control
T/C [4]: 114 % of control and 124 % of control
T/C (dose: 400.0 mg/kg/injection, schedule: Q01DX009 (ip), vehicle: saline sonified): 110 % of control

Cc1ccc(Cl)cc1NC(=O)c1ccccc1C(=O)O
T/C [6]: 93 % of control
T/C [7]: 93 % of control
T/C [8]: 103 % of control

Nc1[nH]c(=O)nc2nc[nH]c12
T/C [5]: 108 % of control
T/C [1]: 94 % of control
T/C [2]: 89 % of control

Cc1cc(/C=C/c2cc[n+](C)c3ccccc23)c(O)c2ncccc12
T/C (dose: 3.0 mg/kg/injection, schedule: Q01DX009 (ip), vehicle: saline sonified): 104 % of control
T/C (dose: 6.0 mg/kg/injection, schedule: Q01DX009 (ip), vehicle: saline sonified): 97 % of control
T/C (dose: 12.0 mg/kg/injection, schedule: Q01DX009 (ip), vehicle: saline sonified): 97 % of control
T/C (dose: 24.0 mg/kg/injection, schedule: Q01DX009 (ip), vehicle: saline sonified): 100 % of control
T/C (dose: 48.0 mg/kg/injection, schedule: Q01DX009 (ip), vehicle: saline sonified): 104 % of control

COc1ccc(CSCC(NC(=O)OC(C)(C)C)C(=O)O)cc1 (configuration not stated)
T/C [6]: 110 % of control
T/C [7]: 97 % of control
T/C [8]: 95 % of control

CS(=O)(=O)Nc1ccc(Nc2c3ccccc3nc3cc([N+](=O)[O-])ccc23)cc1
T/C (dose: 0.6 mg/kg/injection, schedule: Q01DX009 (ip), vehicle: saline sonified): 112 % of control
T/C (dose: 2.5 mg/kg/injection, schedule: Q01DX009 (ip), vehicle: saline sonified): 154 % of control
T/C (dose: 50.0 mg/kg/injection, schedule: Q01DX001 (ip), vehicle: saline sonified): 158 % of control

NN1C(=O)c2ccc3c4c(ccc(c24)C1=O)CC3
T/C (dose: 50.0 mg/kg/injection, schedule: Q01DX009 (ip), vehicle: suspension in saline): 104 % of control
T/C (dose: 100.0 mg/kg/injection, schedule: Q01DX009 (ip), vehicle: suspension in saline): 102 % of control
T/C (dose: 200.0 mg/kg/injection, schedule: Q01DX009 (ip), vehicle: suspension in saline): 97 % of control
T/C (dose: 400.0 mg/kg/injection, schedule: Q01DX009 (ip), vehicle: suspension in saline): 102 % of control

OCCc1ccccc1
T/C (dose: 31.3 mg/kg/injection, schedule: Q01DX009 (ip), vehicle: saline with Tween-80): 93 % of control
T/C (dose: 50.0 mg/kg/injection, schedule: Q01DX009 (ip), vehicle: saline with Tween-80): 100 % of control
T/C (dose: 62.5 mg/kg/injection, schedule: Q01DX009 (ip), vehicle: saline with Tween-80): 95 % of control
T/C (dose: 100.0 mg/kg/injection, schedule: Q01DX009 (ip), vehicle: saline with Tween-80): 97 % of control
T/C (dose: 125.0 mg/kg/injection, schedule: Q01DX009 (ip), vehicle: saline with Tween-80): 100 % of control
T/C (dose: 200.0 mg/kg/injection, schedule: Q01DX009 (ip), vehicle: saline with Tween-80): 105 % of control
T/C (dose: 250.0 mg/kg/injection, schedule: Q01DX009 (ip), vehicle: saline with Tween-80): 93 % of control

[N-]=[N+]=CC(=O)CCC(=O)C=[N+]=[N-]
T/C (dose: 0.18 mg/kg/injection, schedule: Q01DX009 (ip), vehicle: other): 92 % of control
T/C (dose: 0.37 mg/kg/injection, schedule: Q01DX009 (ip), vehicle: other): 96 % of control
T/C (dose: 0.39 mg/kg/injection, schedule: Q01DX009 (ip), vehicle: other): 123 % of control
T/C (dose: 0.75 mg/kg/injection, schedule: Q01DX009 (ip), vehicle: other): 92 % of control
T/C (dose: 1.5 mg/kg/injection, schedule: Q01DX009 (ip), vehicle: other): 104 % of control
T/C (dose: 1.56 mg/kg/injection, schedule: Q01DX009 (ip), vehicle: other): 101 % of control and 117 % of control

CC(C)=CCC(OC(=O)C=C(C)C)C1=CC(=O)c2c(O)ccc(O)c2C1=O (configuration not stated)
T/C (dose: 0.25 mg/kg/injection, schedule: Q01DX009 (ip), vehicle: Klucel (hydroxypropylcellulose) (HPC)): 99 % of control
T/C (dose: 0.5 mg/kg/injection, schedule: Q01DX009 (ip), vehicle: Klucel (hydroxypropylcellulose) (HPC)): 92 % of control

Cc1cccc(C(N)=S)n1
T/C (dose: 50.0 mg/kg/injection, schedule: Q01DX009 (ip), vehicle: Klucel (hydroxypropylcellulose) (HPC)): 110 % of control
T/C [6]: 100 % of control
